Entries after “also recorded” stand apart in the source; their conditions may differ.
Key:
RPE-MBH cells = assay: IC50 in RPE-MBH cells (Table 1); type: cell-based, human; settings: Homo sapiens, 72 h, RPE-MBH, treatment 72 h; read-out: IC50
Method: (§1) Cells were split, plated in appropriate culture media and allowed to adhere. After 18 hours, corynoline and acetylcorynoline were added to a cell line selected from below. At 72 h or 96 h, MTT was added and at 75 h or 99 h, the A570 nm was recorded. The concentration ranged from 0.02 μM to 40 μM.
The following RPE cell lines were used in these studies: RPE NEO, RPE MBH, RPE MBC, RPE MA, RPE MP, RPE MI, and RPE MYC Nick. This RPE series were derived from human retinal pigment epithelium and then stably transfected with an hTERT expression construct for immortalization. The resulting cell line was then engineered to overexpress the MYC oncogene (RPE-MYC) or a Neomycin selection marker gene (RPE-NEO). In RPE-MYC cells, a variety of other oncogenes such as Myr-AKT, BCL2, ID1 and PI3K^E45k were further introduced individually to generate the cell lines RPE MA, RPE MBC, RPE MI, RPE MP, respectively. As a control, H2BGFP was introduced into RPE-MYC cells to generate RPE MBH.
(§2) The effect of the compounds chelidonine and protopine on cell division was assessed similarly to corynoline and acetylcorynoline above. As described in Example 6 above, as cells enter and become arrested in mitosis, they detach from the plate surface and appear as rounded cells with a smooth surface membrane. RPE-MBC cells (ectopically expressing oncogenes MYC and Bcl2) were treated with DMSO, chelidonine and protopine, and compared against controls Michael's ketone (MK) and taxol.

cells = assay: Progression through mitosis by time-lapse microscopy; type: cell-based
From the text: Time lapse microscopy was used to compare progression through mitosis for cells treated with acetylcorynoline and the DMSO control group, beginning at prophase.

RPE MBC cells = assay: Mitotic kinetochore analysis with CREST antibody; type: cell-based, human
Method: Following treatment with acetylcorynoline, RPE MBC cells were prepared for immunofluorescence analysis with CREST serum (staining shown in FIG. 6 and FIG. 7 in red).

RPE-MBC cells [1] = assay: Mitotic arrest (cell round-up, phospho-Histone H3) and polyploidy (DAPI) assay; type: cell-based, human
Method: (§3) For screening for bioactive fractions, cells were cultured in 96-well plates, and exposed to crude extracts, partially purified fractions or pure compounds at the concentrations indicated in the figure legends. Exposure was for 24 or 48 hours before analysis of cells for either an arrest in mitosis using an inverted microscope or for a change in DNA content after 4′,6′-diamidino-2-phenylindole (DAPI) staining by fluorescence microscopy.
(§4) Cells were cultured on coverslips in a 6-well plate, fixed with 4% paraformaldehyde and then permeabilized with 0.3% Triton X-100 in PBS. Primary antibody was detected with Texas-Red-conjugated secondary antibodies that were purchased from Jackson ImmunoResearch. After immunostaining, cells were mounted on microscope slides with 4′,6′-diamidino-2-phenylindole (DAPI)-containing Vectashield mounting solution (Vector Laboratories) for detection of fluorescence with an EVOS FL fluorescence microscope (ThermoFisher).
Cellular “round-up” was used as a surrogate marker for mitotic arrest and could easily be assayed using an inverted tissue culture microscope. […] Mitotic arrest was judged by cell round-up observed under an inverted tissue culture microscope 24 hours after exposing cells to the library.
As cells enter and become arrested in mitosis, they detach from the plate surface and appear as rounded cells with smooth surface membrane, distinct from detached cells that are undergoing programmed cell death. Simple visual screening method was used to assay thousands of extracts. […] To identify bioactive components that are able to interfere with mitosis, 3 kg of Corydalis longicalcarata rhizome were recollected and performed bioactivity-guided extraction, isolation, and purification. The air dried and powdered material was extracted with 70% ethanol assisted by exposure to ultrasonic waves.

aurora-B kinase = assay: Phosphorylation of Histone 3 at Ser10 as surrogate of aurora-B kinase activity; type: cell-based
Method: as §4

human cancer cell lines = assay: MTT assay, human cancer cell lines; type: cell-based; settings: with the exception of T98G (FIG. 13)
Method: as §1, with “μM. Taxol was used as a positive control, which has a known IC50 value of less than 0.02 μM in all tested cell lines.” for “μM.”
The following human cancer cell lines, representing a breadth of cancer subtypes, were used in these studies: Hela, C32, NCI-H23, HCT116 p53-/-, HCT116 wild type, MDA-MB-175IV, MDA-MB-231, MDA-MB-435, MCF-7, A431, H460, TUWI, CaoV-3, T98G, and HTB135.

[2] = test system: RPE cell lines (RPE NEO, RPE MBH, RPE MBC, RPE MA, RPE MP, RPE MI, RPE MYC Nick); assay: MTT assay, RPE cell lines expressing oncogenes; type: cell-based, human; settings: RPE cell lines compared with RPE NEO control (FIG. 11)
RPE-MBC cells [3] = assay: IC50 in RPE-MBC cells (Table 1); type: cell-based, human; settings: Homo sapiens; RPE-MBC, treatment 72 h; read-out: IC50
Method: as §3, with “Retinal pigment epithelial cells transformed by ectopic MYC and Bcl-2 expression (RPE-MBC cells) have been described previously (e.g., Goga et al., 2007, Nat. Med., 13 (7):820-827) and were cultured in DMEM supplemented with 5% fetal bovine serum in a humidified incubator that was maintained at 5% CO2. For” for “For”
The RPE series were derived from human retinal pigment epithelium and then stably transfected with a hTERT expression construct for immortalization. The resulting cell line was then engineered to overexpress the MYC and BCL2 oncogenes, generating the RPE MBC cell line. This cell line mimics cancer cells that overexpress MYC and Bcl2, and readily forms viable polyploid cells when cytokinesis is prevented.
as §1, §2

Rat1A cells = assay: IC50 in Rat1A cells (Table 2); type: cell-based; settings: 72 h, Rat1A, treatment 72 h; read-out: IC50
Method: as §1
The following Rat1A cell lines were used in these studies: Rat1 A C, Rat1A MYC, Rat1A E2F1, and Rat1A E2F3. The cell line was then engineered as control (C), to overexpress the MYC oncogene (Rat1A-MYC), to overexpress the E2F1 oncogene (Rat1A-E2F1), or to overexpress the E2F3 oncogene (Rat1A-E2F3).
as §2

With `CC(=O)O[C@H]1Cc2cc3c(cc2[C@H]2N(C)Cc4c(ccc5c4OCO5)[C@@]12C)OCO3` [Acetylcorynoline, (5bR,6S,12bR)-5b,6,7,12b,13,14-Hexahydro-5b,13-dimethyl-[1,3]benzodioxolo[5,6-c]-1,3-dioxolo[4,5-i]phenanthridin-6-ol 6-acetate] the IC50 (RPE-MBH cells) was 12.6 µM, the cytofission (cells; time lapse) was “prevented cytofission” and the initiation of cytokinesis (cells; time lapse) was “does not affect the initiation of cytokinesis”. The “time spent in early mitosis compared to a control cell” value (cells; time lapse beginning at prophase) was “three-times longer”, the “kinetochore arrangement (CREST staining)” value (RPE MBC cells) was “kinetochore arrangement was disturbed” and the “polyploidy compared to DMSO control” value (RPE-MBC cells [1]; 10 μM and 20 μM, 48 hours) was “polyploidy was induced”. The mitotic arrest (RPE-MBC cells [1]; 24 hours after treatment) was “can arrest mitosis within 24 hours of treatment; also recorded: Nearly all cells entered and arrested in mitosis”, the “polyploidy (DAPI staining)” value (RPE-MBC cells [1]; 48 hours after treatment) was “induce polyploidy at 48 hours; also recorded: induced polyploidy; also recorded: Polyploidy was observed; also recorded: demonstrates polyploidy” and the “minimal effective concentration for mitotic arrest and polyploidy relative to corynoline” value (RPE-MBC cells [1]; FIG. 15) was 2 fold. For the same compound, the “mitotic arrest and polyploidy, dependence on concentration” value (RPE-MBC cells [1]; FIG. 15) was “concentration-dependent”, the “persistence of the arrest of cells in mitosis” value (RPE-MBC cells [1]; within 48-hour treatment) was “transient” and the “phosphorylation of Histone 3 at Ser10” value (aurora-B kinase) was “not affected”. For the same compound, the “IC50 compared with the other compound” value (human cancer cell lines) was “higher than those for corynoline”, the “change of IC50 after overexpression of oncogenic factors” value [2] was “all declined compared with the RPE NEO control, with the exception of the RPE MA cell line” and the IC50 (RPE-MBC cells [3]) was 9.94 µM. The IC50 (Rat1A cells) was 27.4 µM.

From US20240139162A1, “Benzophenanthridine Alkaloids and Their Methods of Use” (Chengdu Anticancer Bioscience, LTD., priority 2019, published 2024)
